Patent US20140350114A1, “COMPOSITIONS COMPRISING CYCLOHEXYLAMINES AND AMINOADAMANTANES” (MERZ PHARMA GmbH & CO. KGaA, priority 2003, published 2014)

Columns and labels:
[1] = antimicrobial activity in preserving liquid aqueous formulations (general observation); conditions: at concentrations useful for pharmaceutical formulation purposes
[2] = tested on: Candida albicans, Aspergillus niger, Escherichia coli, Pseudomonas aeruginosa, Staphylococcus aureus; assay: Antimicrobial Effectiveness Testing USP <51>, overall conclusion; assay type: cell-based; conditions: all inoculums
Method: The testing was performed in accordance with the USP <51> using the culture conditions for inoculum specified in the test conditions. The Antimicrobial Effectiveness Testing (referred to later in the text as APE or antimicrobial effectiveness) is performed as described in USP 26, The United States Pharmacopeial Convention, Inc. (Rockville, Md., 2002; pp. 2002-2004). The test is conducted in five sterile, capped bacteriological containers into which a sufficient volume of product has been transferred. Test organisms include Candida albicans (ATCC No. 10231), Aspergillus niger (ATCC No. 16404), Escherichia coli (ATCC No. 8739), Pseudomonas aeruginosa (ATCC No. 9027), Staphylococcus aureus (ATCC No. 6538). Each container is inoculated with one of the prepared and standardized inoculum, and mix. […] The number of cfu present in each test preparation is determined by the plate-count procedure, specified in the monograph, for the applicable intervals. Using the calculated concentrations of cfu per mL present at the start of the test, the change in log10 values of the concentration of cfu per mL for each microorganism is calculated at the applicable test intervals, and the changes in terms of log reductions is expressed. Results are evaluated in accordance with the Product Category for Oral Products made with aqueous bases or vehicle.

Row | SMILES | antimicrobial activity [1] | antimicrobial / preservative effectiveness against USP <51> criteria (conclusion) [2]
1 | CN(C)CCOCC(=O)NC12CC3CC(CC(C3)C1)C2 [tromantadine, 1-(dimethylaminoethoxyacetamido) adamantane] | significant antimicrobial activity | 
2 | CC1(C)CC(C)(C)CC(C)(N)C1 [neramexane, 1-amino-1,3,3,5,5-pentamethylcyclohexane] | significant antimicrobial activity | sufficient preservative efficacy
3 | CC12CC3CC(C)(C1)CC(N)(C3)C2 [memantine, 1-amino-3,5-dimethyl adamantane] | significant antimicrobial activity | 
